Measured values published in US20250340577A1, “BETA-LACTOMASE INHIBITORS AND USES THEREOF” (Case Western Reserve University, priority 2021, published 2025).

Columns and labels:
Test in all cases: MIC with cefepime, agar microdilution, CLSI
Type in all cases: cell-based
[1] = tested on: A. baumannii 0057; conditions: compound fixed at 4 ug/ml; ADC-7
How it was run: (§1)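 Agar microdilution per CLSI guidelines; MIC read for cefepime with the test compound held at a fixed 4 ug/ml.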

[2] = tested on: K. pneumoniae 427; conditions: compound fixed at 4 ug/ml; TEM-1, SHV-1, CTX-M-3
How it was run: as §1

[3] = tested on: E. coli DH10B pBC-SK KPC-2; conditions: compound fixed at 4 ug/ml
How it was run: as §1

[4] = tested on: K. pneumoniae 255; conditions: compound fixed at 4 ug/ml; TEM-1, SHV-2
How it was run: as §1

[5] = tested on: E. coli ATCC BAA202; conditions: compound fixed at 4 ug/ml; SHV-1
How it was run: as §1

[6] = tested on: K. pneumoniae 266; conditions: compound fixed at 4 ug/ml; SHV-5
How it was run: as §1

[7] = tested on: K. pneumoniae ST258 C3; conditions: compound fixed at 4 ug/ml; KPC-3
How it was run: as §1

[8] = tested on: K. pneumoniae 253; conditions: compound fixed at 4 ug/ml; TEM-12, SHV-5, CTX-M
How it was run: as §1

[9] = tested on: E. coli pLTCF2; conditions: compound fixed at 4 ug/ml
How it was run: as §1

[10] = tested on: K. pneumoniae original KPC-2; conditions: compound fixed at 4 ug/ml
How it was run: as §1

[11] = tested on: E. coli DH10B pBC-SK control; conditions: compound fixed at 4 ug/ml; B-lactamases none
How it was run: as §1

[12] = tested on: E. coli DH10B pBC-SK PDC-3; conditions: compound fixed at 4 ug/ml
How it was run: as §1

[13] = tested on: E. coli pLTCF1; conditions: compound fixed at 4 ug/ml; CTX-M group 9
How it was run: as §1

[14] = tested on: K. pneumoniae 34700; conditions: compound fixed at 4 ug/ml; CTX-M-15, SHV, TEM
How it was run: as §1

[15] = tested on: E. coli DH10B pBC-SK P99; conditions: compound fixed at 4 ug/ml
How it was run: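 Fixed 4 ug/ml compound + cefepime; agar microdilution, CLSI.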

Nc1nnc(SCC(=O)NC(Cn2cc(C(=O)O)nn2)B(O)O)s1 (stereo not drawn) [MB076]
MIC of cefepime in combination with compound [1]: 64 µg/mL | MIC of cefepime in combination with compound [2]: < 0.25 µg/mL | MIC of cefepime in combination with compound [3]: < 0.25 µg/mL | MIC of cefepime in combination with compound [4]: 2 µg/mL | MIC of cefepime in combination with compound [5]: < 0.25 µg/mL | MIC of cefepime in combination with compound [6]: < 0.25 µg/mL | MIC of cefepime in combination with compound [7]: 1 µg/mL | MIC of cefepime in combination with compound [8]: 8 µg/mL | MIC of cefepime in combination with compound [9]: < 0.25 µg/mL | MIC of cefepime in combination with compound [10]: < 0.25 µg/mL | MIC of cefepime in combination with compound [11]: < 0.25 µg/mL | MIC of cefepime in combination with compound [12]: < 0.25 µg/mL | MIC of cefepime in combination with compound [13]: < 0.25 µg/mL | MIC of cefepime in combination with compound [14]: 1 µg/mL | MIC of cefepime in combination with compound [15]: < 0.25 µg/mL
